Data on 40 compounds can be found in patent US20170275302A1, “INHIBITORS OF THE RENAL OUTER MEDULLARY POTASSIUM CHANNEL” (Merck Sharp & Dohme Corp., priority 2014, published 2017).

In the assay the target is T1, hROMK (hKir1.1) (Homo sapiens, UniProt P48048).
T1 construct: expressed in transfected cells
T1 sequence (P48048 1-391): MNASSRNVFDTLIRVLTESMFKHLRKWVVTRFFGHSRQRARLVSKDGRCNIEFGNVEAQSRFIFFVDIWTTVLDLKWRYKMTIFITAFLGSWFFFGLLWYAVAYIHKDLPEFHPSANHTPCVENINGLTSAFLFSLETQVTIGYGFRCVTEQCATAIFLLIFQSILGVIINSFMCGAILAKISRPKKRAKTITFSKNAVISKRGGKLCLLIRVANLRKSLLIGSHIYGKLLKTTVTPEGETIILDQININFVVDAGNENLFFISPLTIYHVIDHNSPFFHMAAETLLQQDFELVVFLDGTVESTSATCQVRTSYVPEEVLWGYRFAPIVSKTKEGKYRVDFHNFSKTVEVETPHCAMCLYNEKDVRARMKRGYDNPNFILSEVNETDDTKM
Nature of the assay: Thallium Flux Assay (ROMK channel functional thallium flux assay, FLIPR-Tetra). In kind it is cell-based. The following applies: HEK293 cells stably expressing hROMK (hKir1.1); FluxOR thallium flux, 30 min compound incubation; concentration inhibiting 50% of ROMK thallium flux signal. The method, then: The following Thallium Flux Assay was performed on each of the final product compounds in the Examples.
HEK293 cells stably expressing hROMK (hKir1.1) were grown at 37° C. in a 10% CO2 humidified incubator in complete growth media: Dulbecco's Modified Eagle Medium supplemented with non-essential amino acids, Penicillin/Streptomycin/Glutamine, G418 and FBS. At >80% confluency, the media was aspirated from the flask and rinsed with 10 mL calcium/magnesium-free phosphate buffered saline (PBS). 5 mL of 1× trypsin (prepared in Ca/Mg Free PBS) was added to T-225 flask and the flask was returned to 37° C./CO2 incubator for 2-3 minutes. To dislodge the cells, the side of the flask was gently banged with one's hand. The cells were completely titrated and then the cells were transferred to 25 mL complete media, centrifuged at 1,500 rpm for 6 min followed by resuspension in complete growth media, and the cell concentration was determined. For typical re-seeding, 4E6 cells/T-225 flask will attain >80% confluency in 4 days. Under ideal growth conditions and appropriate tissue culture practices, this cell line is stable for 40-45 passages.
Compound Buffer (per microplate): 20 mL Probenecid/Assay Buffer; 0.3 mM ouabain (10 mM ouabain in water can be stored in amber bottle/aluminum foil at room temperature); Test compound
Stimulant Buffer (prepared at 5× final concentration in 1× FluxOR™Chloride-Free Buffer): 7.5 mM thallium sulfate and 0.75 mM potassium sulfate (to give a final assay concentration of 3 mM Thallium/0.3 mM potassium). Store at 4° C. when not in use. If kept sterile, this solution is good for months.
The ROMK channel functional thallium flux assay was performed in 384 wells, using the FLIPR-Tetra instrument. HEK-hKir1.1 cells were seeded in Poly-D-Lysine microplates and kept in a 37° C.-10% CO2 incubator overnight. On the day of the experiment, the growth media was replaced with the FluxOR™ reagent loading buffer and incubated, protected from light, at ambient temperature (23-25° C.) for 90 min. The loading buffer was replaced with assay buffer±test compound followed by 30 min incubation at ambient temperature, where the thallium/potassium stimulant was added to the microplate.
• 1. Seed HEK-hKir1.1 cells (50 μl at 20,000 cells/well) in 384-well PDL coated Microplates • 2. Allow cells to adhere overnight in humidified 37° C./10% CO2 incubator • 3. Completely remove cell growth media from microplate and replace with 25 μl loading buffer • 4. Incubate Microplate at room temperature, protected form light, for 90 min • 5. Remove loading buffer and replace with 25 μl 1× Assay Buffer±test compound. • 6. Incubate microplate at room temperature, protected from light, for 30 min • 7. At FLIPR-Tetra 384: Add stimulant (thallium/potassium) solution to microplate and monitor fluorescence. Excitation=400 nm, Emission=460 & 580 nm. Collect data for ˜10 min.
The fluorescence intensity of wells containing 3 μM of a standard control ROMK inhibitor of the present invention was used to define the ROMK-sensitive component of thallium flux. Fluorescence in the presence of test compounds was normalized to control values to provide % fluorescence change. IC50 values represent the concentration of compound that inhibited 50% of the ROMK thallium flux signal.
Broadly, the IC50 is the concentration that gives 50% inhibition. A high value points to weaker potency in that assay. For `COc1cc2ccc(N3CCC4(CCN(C[C@H](O)c5ccc6c(c5C)COC6=O)CC4)C3=O)nc2cn1` [Example 33], half-maximal inhibition (IC50) was put at 284 nM.

Compound `Cc1c([C@@H](O)CN2CCC3(CC2)CCN(c2ccc4sccc4n2)C3=O)ccc2c1COC2=O` [Example 34] registered an IC50 of 427 nM.

`Cc1c([C@@H](O)CN2CCC3(CC2)CCN(c2ccc4ncnn4c2)C3=O)ccc2c1COC2=O` [Example 35] came in with an IC50 of 537 nM.

Turning to `Cc1c([C@@H](O)CN2CCC3(CC2)CCN(c2cc4cncnc4s2)C3=O)ccc2c1COC2=O` [Example 36], inhibition was half-maximal at 190 nM (IC50).

`Cc1c([C@@H](O)CN2CCC3(CC2)CCN(c2cc4cnccc4s2)C3=O)ccc2c1COC2=O` [Example 37] showed an IC50 of 117 nM.

`Cc1c([C@@H](O)CN2CCC3(CC2)CCN(c2ccnc4c2OCO4)C3=O)ccc2c1COC2=O` [Example 38, (R)-2-([1,3]dioxolo[4,5-b]pyridin-7-yl)-8-(2-hydroxy-2-(4-methyl-1-oxo-1,3-dihydroisobenzofuran-5-yl)ethyl)-2,8-diazaspiro[4.5]decan-1-one]: the IC50 is 54.9 nM.

In turn, `Cc1c([C@@H](O)CN2CCC3(CC2)CC(=O)N(c2cn4ncnc4cn2)C3)ccc2c1COC2=O` [Example 39, (R)-2-([1,2,4]triazolo[1,5-a]pyrazin-6-yl)-8-(2-hydroxy-2-(4-methyl-1-oxo-1,3-dihydroisobenzofuran-5-yl)ethyl)-2,8-diazaspiro[4.5]decan-3-one] displayed an IC50 of 458 nM.

`Cc1c([C@@H](O)CN2CCC3(CC2)CC(=O)N(c2ccc4nc(C(F)(F)F)nn4c2)C3)ccc2c1COC2=O` [Example 40] registered an IC50 of 894 nM.

For the compound `Cc1c([C@@H](O)CN2CCC3(CC2)CC(=O)N(c2cnn4ncccc24)C3)ccc2c1COC2=O` [Example 41], inhibition was half-maximal at 336 nM (IC50).

As to `N#Cc1ccc(C(O)CN2CCC3(CC2)CCN(c2ccc4nncn4n2)C3)nc1` (stereo not shown) [Example 42], it took 117 nM to reach half-maximal inhibition (IC50).

In turn, `N#Cc1ccc(C(O)CN2CCC3(CC2)CCN(c2ccc4nncn4n2)C3)nc1` (stereo not shown) [Example 43] came in with an IC50 of 361 nM.

`COc1cc([C@H](O)CN2CCC3(CC2)CCN(c2ccc4nncn4n2)C3)ncc1C#N` [Example 44] gave an IC50 of 124 nM.

The compound `COc1cc([C@@H](O)CN2CCC3(CC2)CCN(c2ccc4nncn4n2)C3)ncc1C#N` [Example 45, 6-(2-(2-([1,2,4]triazolo[4,3-b]pyridazin-6-yl)-2,8-diazaspiro[4.5]decan-8-yl)-1-hydroxyethyl)-4-methoxynicotinonitrile] gave an IC50 of 45.9 nM.

As for `Cc1nc(C(O)CN2CCC3(CC2)CCN(c2ccc4nncn4n2)C3)ccc1C#N` (stereo not shown) [Example 46, 6-(2-(2-([1,2,4]triazolo[4,3-b]pyridazin-6-yl)-2,8-diazaspiro[4.5]decan-8-yl)-1-hydroxyethyl)-2-methylnicotinonitrile], the midpoint of inhibition, the IC50, lay at 77 nM.

Take `Cc1nc(C(O)CN2CCC3(CC2)CCN(c2ccc4nncn4n2)C3)ccc1C#N` (stereo not shown) [Example 47]: the IC50 is 147 nM. Against the preceding compound, the IC50 is about 1.9-fold higher.

As to `Cc1cc(C#N)cnc1C(O)CN1CCC2(CC1)CCN(c1ccc3nncn3n1)C2` (stereo not shown) [Example 48], the IC50 amounted to 88.1 nM.

For the compound `Cc1cc(C#N)cnc1C(O)CN1CCC2(CC1)CCN(c1ccc3nncn3n1)C2` (stereo not shown) [Example 49], half-maximal inhibition (IC50) was put at 208 nM.

`COc1cc(C(O)CN2CCC3(CC2)CCN(c2ccc4nncn4n2)C3)ccc1C#N` (stereo not shown) [Example 50] returned an IC50 of 41.5 nM.

Regarding `COc1cc(C(O)CN2CCC3(CC2)CCN(c2ccc4nncn4n2)C3)ccc1C#N` (stereo not shown) [Example 51], the IC50 was determined as 48.7 nM.

Take `COc1cc(C(O)CN2CCC3(CC2)CCN(c2ccc4nncn4n2)C3)c(Cl)cc1C#N` (stereo not shown) [Example 56]: the IC50 was 27.6 nM.

Regarding `Cc1nc(C(O)CN2CCC3(CC2)CC(=O)N(c2ccc4nncn4n2)C3)ccc1C#N` (stereo not shown) [Example 57], the IC50 amounted to 248 nM.

For the compound `COc1cc(C(O)CN2CCC3(CC2)CC(=O)N(c2ccc4nncn4n2)C3)ccc1C#N` (stereo not shown) [Example 58], the IC50 came out at 413 nM.

Consider `N#Cc1ccc(C(O)CN2CCC3(CC2)CC(=O)N(c2ccc4nncn4n2)C3)nc1` (stereo not shown) [Example 59], for which inhibition was half-maximal at 412 nM (IC50).

`COc1cc([C@H](O)CN2CCC3(CC2)CC(=O)N(c2ccc4nncn4n2)C3)ncc1C#N` [Example 60]: the IC50 is 780 nM.

With `COc1cc([C@@H](O)CN2CCC3(CC2)CC(=O)N(c2ccc4nncn4n2)C3)ncc1C#N` [Example 61], the IC50 worked out at 228 nM.

Take `N#Cc1ccc(C(O)CN2CCC3(CCN(c4ccc5nncn5n4)CC3)C2)nc1` (stereo not shown) [Example 62]: the IC50 came to 129 nM. This IC50 is about 1.8-fold lower than that of the compound before.

Turning to `N#Cc1ccc(C(O)CN2CCC3(CCN(c4ccc5nncn5n4)CC3)C2)nc1` (stereo not shown) [Example 63], it took 154 nM to reach half-maximal inhibition (IC50). The IC50 values of the last two compounds are within 1.5-fold of each other.

In turn, `COc1cc([C@H](O)CN2CCC3(CCN(c4ccc5nncn5n4)CC3)C2)ncc1C#N` [Example 64] returned an IC50 of 91.8 nM.

In turn, `Cc1cc(C#N)cnc1C(O)CN1CCC2(CCN(c3ccc4nncn4n3)CC2)C1` (stereo not shown) [Example 65, 6-(2-(8-([1,2,4]triazolo[4,3-b]pyridazin-6-yl)-2,8-diazaspiro[4.5]decan-2-yl)-1-hydroxyethyl)-5-methylnicotinonitrile] registered an IC50 of 34.7 nM.

Take `Cc1cc(C#N)cnc1C(O)CN1CCC2(CCN(c3ccc4nncn4n3)CC2)C1` (stereo not shown) [Example 66]: the IC50 was 72.8 nM.

The compound `Cc1nc(C(O)CN2CCC3(CCN(c4ccc5nncn5n4)CC3)C2)ccc1C#N` (stereo not shown) [Example 67, 6-(2-(8-([1,2,4]triazolo[4,3-b]pyridazin-6-yl)-2,8-diazaspiro[4.5]decan-2-yl)-1-hydroxyethyl)-2-methylnicotinonitrile] had an IC50 of 64.2 nM.

With `Cc1nc(C(O)CN2CCC3(CCN(c4ccc5nncn5n4)CC3)C2)ccc1C#N` (stereo not shown) [Example 68], the IC50 was 85.9 nM.

In turn, `Cc1c([C@@H](O)CN2CCC3(CCN(c4ccc5nncn5n4)CC3)C2)ccc2c1COC2=O` [Example 70, (R)-5-(2-(8-([1,2,4]triazolo[4,3-b]pyridazin-6-yl)-2,8-diazaspiro[4.5]decan-2-yl)-1-hydroxyethyl)-4-methylisobenzofuran-1(3H)-one] registered an IC50 of 31 nM. Compared with the last compound, the IC50 is about 2.8-fold lower.

On to `COc1cc([C@@H](O)CN2CCC3(CC2)CCN(c2ccc4nnnn4n2)C3)ncc1C#N` [Example 71, (S)-6-(1-hydroxy-2-(2-(tetrazolo[1,5-b]pyridazin-6-yl)-2,8-diazaspiro[4.5]decan-8-yl)ethyl)-4-methoxynicotinonitrile], for which inhibition was half-maximal at 208 nM (IC50). Against the preceding compound, the IC50 is about 6.7-fold higher.

`COc1cc([C@@H](O)CN2CCC3(CC2)CCN(c2nn4cnnc4s2)C3)ncc1C#N` [Example 72]: the IC50 came out at 250 nM.

Regarding `COc1cc([C@@H](O)CN2CCC3(CC2)CCN(c2ccc4nncn4c2)C3)ncc1C#N` [Example 73], the IC50 turned out to be 221 nM.

The compound `Cc1c([C@@H](O)CN2CCC3(CC2)CCN(c2ccc4nncn4n2)C3=O)ccc2c1COC2=O` [Example 74] had an IC50 of 116 nM.

On to `COc1cc([C@@H](O)CN2CCC3(CC2)CCN(c2ccc4nncn4n2)C3=O)ncc1C#N` [Example 75], for which half-maximal inhibition (IC50) required 608 nM.

With `Cc1c([C@@H](O)CN2CCC3(CCCN(c4ccc5nncn5n4)C3)CC2)ccc2c1COC2=O` [Example 76], the IC50 came to 97.6 nM.

For `COc1cc([C@H](O)CN2CCC3(CC2)CCN(c2ccc4c(c2C)COC4=O)C3)ncc1C#N` [Example 77, (R)-6-(1-hydroxy-2-(2-(4-methyl-1-oxo-1,3-dihydroisobenzofuran-5-yl)-2,8-diazaspiro[4.5]decan-8-yl)ethyl)-4-methoxynicotinonitrile], the IC50 came out at 66.4 nM.
